Experimental data from patent US20230285498A1, “TREATMENTS FOR CANCERS HAVING KRAS MUTATIONS” (City of Hope, priority 2020, published 2023).

Legend:
[1] = tested on: H23 sotorasib (20 μM)-resistant cells; test: Cell proliferation, isogenic sotorasib resistant line; format: cell-based; details: ITGB4/β-catenin double knockdown together with sotorasib; 96 hours
Description: Next, it was sought to determine cell proliferation changes with the combination treatment.

[2] = tested on: WNT2, CFTR and CCL2 expression in H23 cells; test: qPCR validation of RNAseq; format: cell-based
Procedure: The drug treatment what initiated at dose of 1 μM which was finally raised up to 7.5 μM. […] Further, using qPCR assay we validated the RNAseq data and observed more than 40 fold induction in expression of various genes such as WNT2, CFTR and CCl2. (FIGS. 17D-17F). Further the analysis also identified activation of MYC and E2F Target Hall Mark Pathways which may help H23 cells in withstanding drug toxicity (data not shown).
Quantitative real-time PCR and RNAseq: Quantitative real-time PCR (qPCR) reactions were performed using TaqMan Universal PCR Master Mix (Thermo Fisher Scientific, Waltham, Mass.) and analyzed by the Quant Studio? Real-time PCR system (Life Technologies, Grand Island, N.Y.). Total RNA isolation and on-column DNase digestion from cells were performed basing on the manufacturer's protocol RNeasy Plus Mini Kit (Qiagen Cat #: 74134). 1 ug of RNA was used to synthesize the cDNA according to the one step cDNA synthesis kit from QuantaBio (Cat #: 101414-106). TaqMan probes were purchased from ThermoFisher (Waltham, Mass.). The mRNA expression was analyzed using multiplex PCR for the gene of interest and GAPDH as a reference using two independent detection dyes FAM probes and VIC probes respectively. Relative mRNA expression was normalized to GAPDH signals and calculated using the delta Ct method.

SW1573 = test: Cell proliferation assay, 2D (IncuCyte live cell imaging); format: cell-based; details: for IC50 / inhibition of cell growth at last time point: SW1573; for inhibition of cell growth at last time point: 96 hours
Procedure: The cells were seeded at density of 10000 cells/well 12 hours prior to the experiment. Once the cells attached to the plate the media was removed and the drugs were added to the cells. […] Cell proliferation was observed using the IncuCyte Live Imaging System for 72 hrs.
Knockdown of ITGB4 (Cat #SR302473C) at the mRNA level in the SW1573 cells was done using siRNAs purchased from OriGene Technologies (Rockville, Md., USA). JetPRIME transfection reagent (Polyplus Transfection, Illkirch, France) was used to transfect the siRNAs according to the manufacturer's protocol. Cells were seeded in 6-well plates (200,000 cells/well) and allowed to adhere overnight. Next day, 10 nM siRNA was transfected with 4 μl jetPRIME reagent in complete growth medium for each well. Next day cells were trypsinized, counted and re-plated on the 96 well plate for cell proliferation and drug assay. […] Cell growth medium was changed the next day and expression was detected 72 h post-transfection by immunoblotting.
The cells grown in 2D cultures were treated with various concentrations of the drug, and the effect on cell proliferation was determined in real time using the live cell proliferation assay (IncuCyte, Essen Bioscience, Inc.) as described in the methods.
Cell proliferation and apoptosis assay: Cell proliferation assays were performed using cell lines stably transfected with NucLight Red Lentivirus (Essen BioScience) to accurately visualize and count the nucleus of a single cell. Cells were seeded on a 96-well plate and allowed to adhere for 24 h. Test compounds were added at indicated concentrations. Caspase-3/7 Green Apoptosis Reagent (Essen BioScience) was also added as a green fluorescent indicator of caspase3/7-mediated apoptotic activity. To monitor cell proliferation and apoptosis over time, the plate was placed in the IncuCyte S3 Live Cell Imaging System (Essen BioScience) and images were acquired every 2 hours. Data analysis was generated by the IncuCyte software using a red fluorescence mask to accurately count each cell nucleus and a green fluorescence mask to measure apoptosis over time. 3D spheroid assay 3D spheroid experiments were performed using cell lines stably transfected with NucLight Red Lentivirus (Essen BioScience) to visualize red fluorescence as an indicator of cell viability. Cells were seeded on a 96-well ultra-low attachment plate and allowed to form spheroids overnight. Drug treatment was added as indicated along with Cytotox Green Reagent (Essen BioScience), used as a green fluorescence indicator of cell death due to loss of cell membrane integrity. To monitor cell proliferation and apoptosis over time, the plate was placed in the IncuCyte S3 Live Cell Imaging System (Essen BioScience) and images were acquired every 2 hours. Data analysis was generated by the IncuCyte software using a red fluorescence mask to accurately measure intensity and area of red fluorescence, indicating spheroid viability and a green fluorescence mask, indicating cell death. Cell cycle analysis.

SW1573 cells [3] = test: Cell cycle analysis (FACS); format: cell-based; details: 20 μM, 72 hours
Description: Using commercially available lentiviral particles (Essen Bioscience Inc.), a SW1573 stable cell line was developed to determine the dynamics of the cell cycle in response to the KRAS inhibitors. In the G1 phase, these cells express the red fluorescent protein and in G2, they express the green fluorescent protein, and cells transitioning from G1 to […], express both the proteins giving rise to yellow florescence.
Cell cycle analysis. […] The stable cell line was generated using the puromycin selection media. Yellow cells are indicative of cell cycle transition from G1 to S while non-fluorescent cells are moving from M to G1.

SW1463 = test: Cell proliferation, colorectal G12C homozygous cell line; format: cell-based; details: Homo sapiens, SW1463, read-out: inhibition of proliferation
Description: For this experiment the inventors chose SW837 and SW1463 colorectal cell line. The SW837 cell is heterozygous for the G12C mutation whereas the SW1463 is homozygous for the G12C mutation. A stable cell line expressing mKATE2 for Incucyte live cell imaging and analysis was generated.

SW1573 cells [4] = test: Zebrafish larvae SW1573 xenotransplant; format: in vivo
Procedure: The inventors microinjected SW1573 cells into the perivitelline space of 48 hour post-fertilization (hpf) zebrafish larvae.

H23 cells = test: Zebrafish larvae H23 xenotransplant; format: in vivo; details: 72 h, 12 µM

`C=CC(=O)N1CCN(c2nc(=O)n(-c3c(C)ccnc3C(C)C)c3nc(-c4c(O)cccc4F)c(F)cc23)[C@@H](C)C1` [sotorasib] was tested, and the “sensitization of isogenic resistant line” value [1] was 70%, the “induction in expression of WNT2, CFTR and CCL2 (qPCR)” value [2] was “more than 40 fold” and the inhibition at 10 µM (SW1573; Homo sapiens, SW1573, 72 h, read-out: inhibition of proliferation / cell growth) was ~50%. For the same compound, the IC50 (SW1573; Homo sapiens, 72 hours, Example 6) was 9.5 µM, the IC50 (SW1573; Homo sapiens, Example 1, FIG. 14C-14D) was 8 µM and the “inhibition of cell growth at last time point” value (SW1573; ITGB4/β-catenin double knockdown plus sotorasib) was “about 70%”. For the same compound, the “inhibition of cell growth at last time point” value (SW1573; sotorasib at IC50 concentration only) was “about 40%”, the G2 population (SW1573 cells [3]; from 26%) was 11% and the G1 population (SW1573 cells [3]; from about 39%) was 62%. For the same compound, the inhibition at 10 µM (SW1463) was 40%, the “most effective dose, drug alone (obliterates SW1573 cells)” value (SW1573 cells [4]) was 12 µM and the “toxic dose, drug alone” value (SW1573 cells [4]) was 18 µM. For the same compound, the “reduction of tumor growth (median)” value (H23 cells) was “about 80%”.
